Measurements: patent US20260176627A1, “DUAL-RNA-GUIDED, SPLIT-PEGRNA RECORDER FOR MOLECULAR INTERACTION” (University of Washington, priority 2022, published 2026)

Target: T1, PYL-MCP and LambdaN-ABI (Arabidopsis thaliana, UniProt Q8VZS8)
T1 construct: expressed in transfected cells; host or cells: HEK293T
Assay: Split-pegRNA recording of abscisic acid (ABA)-induced dimerization of PYL-MCP and LambdaN-ABI
Format: cell-based
Conditions: PYL-ABI pair, abscisic acid added to cell culture
From the text: FIG. 3. Recording protein-protein interaction and small molecule exposure using Split-pegRNA recorders. a-b. Design of Split-pegRNA recorder with protein adaptors to record protein-protein interaction (a) and exposure to small molecule (b). c. Normalized editing efficiency of different pairs of constructs tagged with MCP and LambdaN adaptors. Editing efficiencies are scaled (“normalized”) to positive editing control of CTT insertion to HEK3 locus by epegRNA (“eCTT control”). In MCP-LambdaN condition, a single protein-expression construct with MCP tethered with LambdaN was transfected instead of a pair of protein-expression constructs. […]
In the past 30 years, several chemicals have been identified as critical signaling molecules for promoting protein-protein interactions^8. We reasoned that the exposure of these “molecular glue” small molecules to cells can be recorded into the genome using specifically engineered split-pegRNA recorders. […]
Sequencing reads from Illumina MiSeq™ and NextSeq™ platforms are first demultiplexed using BCL2fastq software (Illumina). […] Editing efficiencies were calculated using pattern-matching software such as Regular Expression (package REGEX) in Python, counting correct amplicon reads with or without intended edits (CTT insertion to HEK3 locus^1).

T1 sequence (Q8VZS8 other isoform, or with tags, fused parts or gaps): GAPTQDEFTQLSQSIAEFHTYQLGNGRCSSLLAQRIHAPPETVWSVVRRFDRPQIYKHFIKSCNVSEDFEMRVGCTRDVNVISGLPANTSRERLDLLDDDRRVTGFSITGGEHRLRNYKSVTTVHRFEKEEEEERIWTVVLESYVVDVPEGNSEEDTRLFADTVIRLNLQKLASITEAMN
T1 sequence (P49597 other isoform, or with tags, fused parts or gaps D143A, further chain): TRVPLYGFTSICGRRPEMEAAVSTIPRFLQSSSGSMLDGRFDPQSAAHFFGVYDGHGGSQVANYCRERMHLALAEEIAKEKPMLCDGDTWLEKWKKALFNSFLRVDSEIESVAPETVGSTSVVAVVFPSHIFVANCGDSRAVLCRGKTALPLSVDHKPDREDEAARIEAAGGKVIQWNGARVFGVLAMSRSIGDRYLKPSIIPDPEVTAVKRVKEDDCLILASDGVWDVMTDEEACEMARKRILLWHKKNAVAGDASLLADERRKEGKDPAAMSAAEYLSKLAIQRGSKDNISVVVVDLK

## CC1=CC(=O)CC(C)(C)[C@@]1(O)/C=C/C(C)=C\C(=O)O [Abscisic acid]
  change in editing efficiency on addition of small molecule: strong increase in the editing efficiency
